In PubChem BioAssay (NCI):
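Where inhibition never reached the appropriate level, the endpoint shown equals the highest concentration tested. Otherwise, values were interpolated linearly from a five-concentration, 48-hour dose response in 96-well plates. Here, GI50 denotes the concentration required for 50% inhibition of growth. TGI denotes the concentration required for complete inhibition of growth.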

Legend:
Assay in all cases: growth of human tumour cells (NCI), 48 h
DU-145 prostate = test system: DU-145 prostate
HT29 colon = test system: HT29 colon
K-562 leukemia = test system: K-562 leukemia
LOX IMVI melanoma = test system: LOX IMVI melanoma
NCI-H23 lung = test system: NCI-H23 lung
NCI-H460 lung = test system: NCI-H460 lung
OVCAR-4 ovarian = test system: OVCAR-4 ovarian
SF-539 CNS = test system: SF-539 CNS
SR leukemia = test system: SR leukemia
U251 CNS = test system: U251 CNS

Structure (SMILES) | GI50 (DU-145 prostate) | TGI (DU-145 prostate) | GI50 (HT29 colon) | TGI (HT29 colon) | GI50 (K-562 leukemia) | TGI (K-562 leukemia) | GI50 (LOX IMVI melanoma) | TGI (LOX IMVI melanoma) | GI50 (NCI-H23 lung) | TGI (NCI-H23 lung) | GI50 (NCI-H460 lung) | TGI (NCI-H460 lung) | GI50 (OVCAR-4 ovarian) | TGI (OVCAR-4 ovarian) | GI50 (SF-539 CNS) | TGI (SF-539 CNS) | GI50 (SR leukemia) | TGI (SR leukemia) | GI50 (U251 CNS) | TGI (U251 CNS)
COc1ccc(-n2c(SCc3cc(OC)c(OC)c(OC)c3)nc3ccc(C)cc3c2=O)c(OC)c1 | 3.72 µM | > 100 µM | 4.04 µM | > 100 µM | 2.99 µM | > 100 µM | 5.23 µM | > 100 µM | 5.24 µM | > 100 µM | 3.68 µM | > 100 µM | 4.65 µM | > 100 µM | 2.88 µM | 7.82 µM | 1.87 µM | 25.5 µM | 4.86 µM | > 100 µM
C(=N\Nc1ccccn1)/c1ccccn1 | 0.324 µM |  | 0.563 µM | > 100 µM | 0.412 µM | > 100 µM | 0.319 µM | > 100 µM | 0.503 µM | > 100 µM | 0.321 µM | 3.98 µM | 0.26 µM |  | 0.333 µM | 2.31 µM | 0.367 µM | > 100 µM | 0.445 µM | > 100 µM
O=C(O)c1cc2ccccc2c(O)c1O |  | 32.3 µM |  | 49.3 µM |  | > 58.8 µM |  | 14.9 µM |  | 22.5 µM |  | 41.8 µM |  | 35 µM |  | 38.1 µM |  | > 79 µM |  | 31 µM
Cc1c(C#N)cccc1-c1cc(-c2cn(Cc3cccc(C(C)(C)O)n3)nn2)nc(N)n1 | 37.1 µM | > 100 µM | 28.2 µM | > 100 µM | 13.4 µM | > 100 µM | 28.2 µM | > 100 µM | 26 µM | > 100 µM | 44.9 µM | > 100 µM | 9.69 µM | > 100 µM | 39.6 µM | > 100 µM | 13.3 µM | > 100 µM | 39.8 µM | > 100 µM
NC(=O)c1cnc(N[C@@H]2CCCC[C@@H]2N)nc1Nc1cccc(-n2nccn2)c1 | 3.84 µM | 15.8 µM | 2.82 µM | 11.5 µM | 3.94 µM | 14.7 µM | 2.11 µM | 6.12 µM | 3.24 µM | 17.2 µM | 3.42 µM | 12.6 µM | 7.01 µM | 19.6 µM | 5.44 µM | 17.2 µM | 2.23 µM | 6.5 µM | 5.87 µM | 18.2 µM
O=C1CCC(Cc2ccc(Cl)cc2Cl)C(=O)N1 (configuration not stated) |  | > 100 µM |  | > 100 µM |  | > 100 µM |  | > 100 µM |  | > 100 µM |  | > 100 µM |  | > 100 µM |  | > 100 µM |  | > 100 µM |  | > 100 µM
CCN(Cc1cccc(OC)c1)c1ccc(CO)c(Cl)c1 | 21.1 µM | 67.5 µM | 2.13 µM | 17.3 µM | 1.92 µM | > 86.5 µM | 14.5 µM | 27.9 µM | 13.6 µM | 51 µM | 0.272 µM | 14.1 µM | 0.291 µM | 14.3 µM | 19 µM | 40.5 µM | 22.9 µM | 66.4 µM | 0.88 µM | 19.9 µM
Cc1ccc2c(c1)nc(C(=O)c1ccco1)c(C(F)(F)F)[n+]2[O-] | > 100 µM | > 100 µM | > 100 µM | > 100 µM | 40.5 µM | > 100 µM | > 100 µM | > 100 µM | 91.8 µM | > 100 µM | > 100 µM | > 100 µM | 76.3 µM | > 100 µM | > 100 µM | > 100 µM | 64.4 µM | > 100 µM | > 100 µM | > 100 µM
CC1=C([Se]CC(OC(=O)CC[Se]c2ccccc2)C(=O)NCCCCCC(=O)OCc2ccccc2)C(=O)c2ccccc2C1=O (configuration not stated) | 3.64 µM | 11.4 µM | 3.65 µM | 12.1 µM | 3.31 µM | 23.7 µM | 1.81 µM | 4.28 µM | 2 µM | 5.53 µM | 1.78 µM | 5.34 µM | 2.28 µM | 6.56 µM | 2.36 µM | 6.03 µM | 3.38 µM | 17.2 µM | 1.89 µM | 4.07 µM
CC[C@]1(O)CC2CN(CCc3c([nH]c4ccccc34)[C@@](C(=O)OC)(c3cc4c(cc3OC)N(C)[C@H]3[C@@](O)(C(=O)OC)[C@H](OC(C)=O)[C@]5(CC)C=CCN6CC[C@]43[C@@H]65)C2)C1 (some centres not stated) | < 0.005 µM | 0.0282 µM | < 0.005 µM | 5.18 µM | < 0.005 µM | 2.26 µM | < 0.005 µM | 8.01 µM | < 0.005 µM | 26.7 µM | < 0.005 µM | 5.8 µM | 0.0303 µM | > 50 µM | < 0.005 µM | 0.293 µM | < 0.005 µM |  | < 0.005 µM | 6.5 µM
CC(=O)OC[C@H]1O[C@@H](n2ccc(=O)[nH]c2=O)[C@H](OC(C)=O)[C@@H]1OC(C)=O | > 100 µM | > 100 µM | > 100 µM | > 100 µM | > 100 µM | > 100 µM | > 100 µM | > 100 µM | > 100 µM | > 100 µM | > 100 µM | > 100 µM | > 100 µM | > 100 µM | > 100 µM | > 100 µM | > 100 µM | > 100 µM | > 100 µM | > 100 µM
O=C(O)c1ccc2c(c1)Cc1cc([N+](=O)[O-])ccc1-2 |  | > 100 µM |  | > 100 µM |  | > 100 µM |  | > 100 µM |  | > 100 µM |  | > 100 µM |  | > 100 µM |  | > 100 µM |  | > 100 µM |  | > 100 µM
COc1ccccc1-[n+]1cc(-c2ccc(-c3ccccc3)cc2)n2c1CCCCC2 | 0.444 µM | 14.8 µM | 0.281 µM | 10.2 µM | 0.173 µM | 13.1 µM | 0.322 µM | 8.1 µM | 0.101 µM | 10.1 µM | 0.388 µM | 11.5 µM | 0.116 µM | 12.5 µM | 0.348 µM | 13.2 µM | 0.304 µM | 24.1 µM | 0.383 µM | 15.7 µM
Nc1ccc2c(SCCSc3c4ccccc4nc4cc(N)ccc34)c3ccccc3nc2c1 |  | > 100 µM |  | > 100 µM |  | > 100 µM |  | > 100 µM |  | > 100 µM |  | > 100 µM |  | > 100 µM |  | > 100 µM |  | > 100 µM |  | > 100 µM
c1ccc(Cc2nc3ccc(Nc4ncnc5ccccc45)cc3[nH]2)cc1 | > 25 µM | > 25 µM | 9.07 µM | > 25 µM | > 25 µM | > 25 µM | 17.3 µM | > 25 µM | > 25 µM | > 25 µM | > 25 µM | > 25 µM | > 25 µM | > 25 µM | > 25 µM | > 25 µM | > 25 µM | > 25 µM | > 25 µM | > 25 µM
COCCn1cc(-c2csc(-c3c[nH]c4ccccc34)n2)c2cccnc21 | 15.4 µM | > 100 µM | 3.19 µM | > 100 µM | 2.8 µM | > 100 µM | 3.96 µM | > 100 µM | 4.58 µM | > 100 µM | 3.4 µM | > 100 µM | 1.76 µM | > 100 µM | 5.91 µM | > 100 µM | 3.02 µM | > 100 µM | 6.12 µM | > 100 µM
